The text below walks through data of US9216957B2, “Androgen receptor antagonists and uses thereof” (SUZHOU KINTOR PHARMACEUTICALS, INC., priority 2011, dated 2015).

The test system of this assay is Prostate-specific antigen (PSA) production in LNCaP cells. Nature of the assay: PSA Assay (inhibition of PSA production in prostate cancer cells, ELISA). In kind it is cell-based, human. Particulars: Homo sapiens, LNCaP, 72 h, read-out: LNCAP IC50 (uM), inhibition of PSA production, LNCaP cells, R1881 1 ng/ml, three days, seven point assay. How it is done:
PSA Assay (Inhibition Test of the Compound of the Present Invention on Prostate-Specific Antigen (PSA) Production in Various Prostate Cancer Cells).
Androgen dependent LNCaP cells were purchased from the American Type Culture Collection (ATCC, Manassas, Va.). These cells were grown in RPMI 1640 medium supplemented with 10% fetal bovine serum (FBS), 100 U/mL penicillin, 100 μg/mL streptomycin, and 0.25 μg/mL amphotericin B. The cells were maintained at 37° C. and 5% CO2. LNCaP cells between passage 20 and 35 were used for experiments. LNCaP is a hormone sensitive cell line. For the PSA assay, human prostate cancer cells LNCaP were seeded in a 96-well plate at a concentration of 5000 cells/100 μl/well. On the following day, Methyltrienolone (R1881, AR agonist) (final concentration 1 ng/ml), test compounds or bicalutamide (Casodex®, AstraZeneca) (final concentration 0.005 to 20 μM) were added. Three days after the addition, the concentration of PSA in the supernatant of the culture solution was measured by ELISA. ELISAs for human PSA in culture medium were performed using the ultra-sensitive assay procedure and reagents in the Active™ PSA assay kit (Diagnostic Systems Laboratories Inc., Webster, Tex.). Culture medium and standards (200 μl/well) were incubated in antibody-coated plates for 2 h at room temperature on a Titer plate shaker at 500-600 rpm. Wells were then washed five times. The HRP conjugate was diluted 1:20 with assay buffer, and 100 μl was added to all wells. The plates were incubated for 30 min at room temperature on the shaker and washed as before, and 100 μl TMB (3,3′,5,5′-tetramethylbenzidine, 0.4 g/l) was added. The plates were incubated for 10 min on the shaker, and the reaction was terminated with 100 μl stop solution. The plates were read using a plate reader at 450 nm with a 650 nm reference filter. PSA levels were normalized for differences in growth of LNCaP cells following various treatments as determined by the MTS assay. IC50 of PSA was calculated based on a seven point assay (concentrations of tested compound) and expressed as micromolar (uM).
Background: In an ELISA, binding on a coated surface is turned into a signal by an enzyme label.
For the compound `CC1(C)C(=O)N(c2ccc(C#N)c(Cl)c2F)C(=S)N1c1ccc(CCCC#N)c(F)c1` [Example 29, 2-chloro-4-(3-(4-(3-cyanopropyl)-3-fluorophenyl)-4,4-dimethyl-5-oxo-2-thioxoimidazolidin-1-yl)-3-fluorobenzonitrile], the IC50 came to 0.29 µM.

On to `CC1(C)C(=O)N(c2ccc(C#N)c(C(F)(F)F)c2F)C(=S)N1c1ccc(CCCc2ncc[nH]2)cc1` [Example 19, 4-(3-(4-(3-(1H-imidazol-2-yl)propyl)phenyl)-4,4-dimethyl-5-oxo-2-thioxoimidazolidin-1-yl)-3-fluoro-2-(trifluoromethyl)benzonitrile], for which the IC50 came out at 0.76 µM.

Turning to `CC1(C)C(=O)N(c2ccc(C#N)c(C(F)(F)F)c2F)C(=S)N1c1ccc(CCCC(=O)N2CCC(O)CC2)c(F)c1` [Example 51, 3-Fluoro-4-(3-{3-fluoro-4-[4-(4-hydroxy-piperidin-1-yl)-4-oxo-butyl]-phenyl}-4,4-dimethyl-5-oxo-2-thioxo-imidazolidin-1-yl)-2-trifluoromethyl-benzonitrile], the IC50 was 0.39 µM.

Consider `N#Cc1ccc(N2C(=O)C3(CCC3)N(c3ccc(CCCC(=O)N4CC(O)C4)c(F)c3)C2=S)c(F)c1C(F)(F)F` [Example 61, 3-Fluoro-4-(5-{3-fluoro-4-[4-(3-hydroxy-azetidin-1-yl)-4-oxo-butyl]-phenyl}-8-oxo-6-thioxo-5,7-diaza-spiro[3.4]oct-7-yl)-2-trifluoromethyl-benzonitrile], for which the IC50 is 0.19 µM.

On to `CC1(C)C(=O)N(c2ccc(C#N)c(C(F)(F)F)c2F)C(=S)N1c1ccc(CCCC#N)nc1` [Example 36, 4-(3-(6-(3-cyanopropyl)pyridin-3-yl)-4,4-dimethyl-5-oxo-2-thioxoimidazolidin-1-yl)-3-fluoro-2-(trifluoromethyl)benzonitrile], for which the IC50 was 0.35 µM.

Turning to `CC1(C)C(=O)N(c2ccc(C#N)c(C(F)(F)F)c2F)C(=S)N1c1ccc(CCCc2ncco2)c(F)c1` [Example 49, 3-Fluoro-4-{3-[3-fluoro-4-(3-oxazol-2-yl-propyl)-phenyl]-4,4-dimethyl-5-oxo-2-thioxo-imidazolidin-1-yl}-2-trifluoromethyl-benzonitrile], the IC50 worked out at 0.49 µM.

`CNC(=O)CCCc1ccc(N2C(=S)N(c3ccc(C#N)c(C(F)(F)F)c3F)C(=O)C2(C)C)cc1F` [Example 44, 4-{4-[3-(4-Cyano-2-fluoro-3-trifluoromethyl-phenyl)-5,5-dimethyl-4-oxo-2-thioxo-imidazolidin-1-yl]-2-fluoro-phenyl}-N-methyl-butyramide]: the IC50 turned out to be 0.11 µM.

For `COc1c(C#N)ccc(N2C(=O)C(C)(C)N(c3ccc(CCCC(=O)N(C)C)cc3)C2=S)c1F` [Example 13, 4-{4-[3-(4-Cyano-2-fluoro-3-methoxy-phenyl)-5,5-dimethyl-4-oxo-2-thioxo-imidazolidin-1-yl]-phenyl}-N,N-dimethyl-butyramide], the IC50 was determined as 1.06 µM.

Consider `CNC(=O)CCc1ccc(N2C(=S)N(c3ccc(C#N)c(C(F)(F)F)c3F)C(=O)C2(C)C)cc1` [Example 4, 3-(4-(3-(4-cyano-2-fluoro-3-(trifluoromethyl)phenyl)-5,5-dimethyl-4-oxo-2-thioxoimidazolidin-1-yl)phenyl)-N-methylpropanamide], for which the IC50 is 14.4 µM.

For the compound `CNC(=O)COCc1ccc(N2C(=S)N(c3ccc(C#N)c(Cl)c3F)C(=O)C2(C)C)cc1` [Example 18, 2-((4-(3-(3-chloro-4-cyano-2-fluorophenyl)-5,5-dimethyl-4-oxo-2-thioxoimidazolidin-1-yl)benzyl)oxy)-N-methylacetamide], the IC50 is 0.56 µM.

Take `CNC(=O)C1(CCc2ccc(N3C(=S)N(c4ccc(C#N)c(C(F)(F)F)c4F)C(=O)C34CCC4)cc2)CCC1` [Example 35, 1-(2-{4-[7-(4-Cyano-2-fluoro-3-trifluoromethyl-phenyl)-8-oxo-6-thioxo-5,7-diaza-spiro[3.4]oct-5-yl]-phenyl}-ethyl)-cyclobutanecarboxylic acid methylamide]: the IC50 is 0.44 µM.

As for `CN(C)C(=O)CCCc1ccc(N2C(=S)N(c3ccc(C#N)c(C(F)(F)F)c3F)C(=O)C2(C)C)cc1` [Example 12, 4-{4-[3-(4-Cyano-2-fluoro-3-trifluoromethyl-phenyl)-5,5-dimethyl-4-oxo-2-thioxo-imidazolidin-1-yl]-phenyl}-N,N-dimethyl-butyramide], the IC50 is 0.61 µM.

Consider `CNC(=O)CCCc1ccc(N2C(=S)N(c3cc(C(F)(F)F)c(C#N)cc3F)C(=O)C2(C)C)cc1` [Example 6, 4-(4-(3-(4-cyano-2-fluoro-5-(trifluoromethyl)phenyl)-5,5-dimethyl-4-oxo-2-thioxoimidazolidin-1-yl)phenyl)-N-methylbutanamide], for which the IC50 worked out at 4.75 µM.

Take `COC(=O)CCCc1ccc(N2C(=S)N(c3ccc(C#N)c(Cl)c3F)C(=O)C2(C)C)cc1` [Example 1, methyl 4-(4-(3-(3-chloro-4-cyano-2-fluorophenyl)-5,5-dimethyl-4-oxo-2-thioxoimidazolidin-1-yl)phenyl)butanoate]: the IC50 is 1.34 µM.

Consider `CC1(C)C(=O)N(c2cc(C(F)(F)F)c(C#N)cc2F)C(=S)N1c1ccc(CCCc2ncc[nH]2)c(F)c1` [Example 60, 4-(3-(4-(3-(1H-imidazol-2-yl)propyl)-3-fluorophenyl)-4,4-dimethyl-5-oxo-2-thioxoimidazolidin-1-yl)-5-fluoro-2-(trifluoromethyl)benzonitrile], for which the IC50 came to 3.3 µM.

As for `CNC(=O)CCCc1ccc(N2C(=S)N(c3ccc(C#N)c(C(F)(F)F)c3F)C(=O)C23CCC3)cc1F` [Example 46, 4-{4-[7-(4-Cyano-2-fluoro-3-trifluoromethyl-phenyl)-8-oxo-6-thioxo-5,7-diaza-spiro[3.4]oct-5-yl]-2-fluoro-phenyl}-N-methyl-butyramide], the IC50 was 0.63 µM.

Take `CC1(C)C(=O)N(c2ccc(C#N)c(Cl)c2F)C(=S)N1c1ccc(CCCc2ncc[nH]2)cc1` [Example 20, 2-Chloro-3-fluoro-4-(3-{4-[3-(1H-imidazol-2-yl)-propyl]-phenyl}-4,4-dimethyl-5-oxo-2-thioxo-imidazolidin-1-yl)-benzonitrile]: the IC50 is 2.14 µM.

On to `CC1(C)C(=O)N(c2ccc(C#N)c(C(F)(F)F)c2F)C(=S)N1c1ccc(CCCC(=O)N2CC(O)C2)c(F)c1` [Example 47, 3-Fluoro-4-(3-{3-fluoro-4-[4-(3-hydroxy-azetidin-1-yl)-4-oxo-butyl]-phenyl}-4,4-dimethyl-5-oxo-2-thioxo-imidazolidin-1-yl)-2-trifluoromethyl-benzonitrile], for which the IC50 was found to be 0.48 µM.

As to `COc1c(C#N)ccc(N2C(=O)C3(CCC3)N(c3ccc(CCCC#N)c(F)c3)C2=S)c1F` [Example 32, 4-(5-(4-(3-cyanopropyl)-3-fluorophenyl)-8-oxo-6-thioxo-5,7-diazaspiro[3.4]octan-7-yl)-3-fluoro-2-methoxybenzonitrile], the IC50 turned out to be 0.36 µM.
